Data on 2 molecules can be found in patent US7390836B2, “Small molecules used to increase cell death” (priority 1999, dated 2008).

Molecules are shown by their SMILES.

In assay [1] the test system is HeLa cells that stably overexpress human BCL-XL. Briefly: Cell death by ATP levels in Bcl-xL overexpressing cells after zVAD-fmk pretreatment. The format is cell-based. The conditions noted are these: zVAD-fmk 100 μM pretreatment, 48 or 72 hours. The procedure:
In another study, HeLa cells that stably overexpress human BCL-XL, and are therefore more resistant to cell death, were pretreated with zVAD-fmk (100 μM) for 1 hour, as described above. Each of the chemical compounds BH3I-1, BH3I-1′, and BH3I-2 from the ChemBridge library was then added to the media of the cells of three separate samples. After 48 or 72 hours of exposure of the cells to zVAD-fmk and the chemical compound, the level of cell death was measured for each sample, by measuring cellular ATP levels.

In another assay the test system is Jurkat/Bcl-xL cells. Briefly: Cell death in Bcl-xL overexpressing Jurkat cells (MTS, PI, sub-G1, FAM-VAD-fmk). The format is cell-based. The settings on record: for sub-G1 DNA: 100 μM BH3I-1 or 30 μM BH3I-2; for dose at which Bcl-xL overexpression gave no protection / doses from which Bcl-xL overexpression provided protection: 48 hr, MTS or PI. The method, then: If BH3Is act through inhibiting the function of anti-apoptotic members of Bcl-2 family, overexpression of Bcl-xL should provide protection against BH3Is, which can be overcome by increased amount of BH3Is. Furthermore, Bcl-xL overexpressing cells. should still undergo apoptosis when treated with a high enough dose of a BH3I to overcome the protection by Bcl-xL. To test this theory, Jurkat/Bcl-xL cells were treated with BH3I-1 and BH3I-2 for 48 hr. Cell death was determined using the MTS assay (FIG. 9A) or PI staining (FIG. 9B). Overexpression of Bcl-xL provided protection for Jurkat cells from lower doses of BH3Is (up to 40 μM of BH3I-2 and up to 100 μM of BH3I-1). Overexpression of Bcl-xL, however, gave no protection after treatment with 80 μM of BH3I-2 or 200 μM of BH3I-1. […] Caspases were activated in Hoechst-positive dying cells following treatment with high doses of BH3Is.

A further assay has as its system Jurkat cells. Briefly: Caspase activation with fluorogenic substrates. The format is cell-based. The conditions noted are these: for caspase-3-like activity (DEVD.amc) / caspase-9-like activity (LEHD.amc): BH3I-1 100 μM, BH3I-2 50 μM; for time of maximum activation of both caspases: after addition of the BH3I. The method, then:
FIG. 6F is a graph showing the time course of caspase activation in Jurkat cells, as assayed using a QuantiPak kit (Biomol). The cells were treated with 100 μM of BH3I-1 (triangles) or 50 μM of BH3I-2 (squares) for 2, 6, 12, or 24 hr. A fluorescence based assay of caspase-3 (Ac-DEVD-AMC) activity was then performed. The numbers represent relative AMC fluorescence in each sample compared to the value obtained with untreated Jurkat cells incubated for 24 hours, set at 1. Standard deviation values are also shown.
FIG. 6G is a graph showing the time course of caspase activation in Jurkat cells, as assayed using a QuantiPak kit (Biomol). The cells were treated with 100 μM of BH3I-1 (triangles) or 50 μM of BH3I-2 (squares) for 2, 6, 12 or 24 hr. A fluorescence based assay of caspase-9 (Ac-LEHD-AMC) activity was then performed. The numbers represent relative AMC fluorescence in each sample compared to the value obtained with untreated Jurkat cells incubated for 24 hours, set at 1. Standard deviation values are also shown.
FIG. 6H is a graph showing the comparison of caspase-9 (Ac-LEHD-AMC) (open bars) and caspase-8 (Ac-IETD-AMC) (closed bars) activation 12 and 24 hr after treatment of Jurkat cells with BH3Is.
To evaluate the activation of caspases by BH3Is, the activation of caspases in the presence of these compounds was measured using the preferred caspase-3 and caspase-9 fluorogenic substrates DEVD.amc and LEHD.amc. […] Activation of both caspases followed an essentially identical time course and reached a maximum 12 hours after addition of the BH3I. If BH3Is induce apoptosis through a mitochondrial pathway, caspase-9 should be activated before caspase-8, since the latter is a mediator of the death receptor pathway at the plasma membrane (Cryns et al., Genes Dev. 12:1551-70, 1998 [published erratum appears in Genes Dev. 13:371, 1999]). Therefore, the levels of caspase-9 and caspase-8 activity were compared by measuring LEHD.amc/IETD.amc cleavage activities.

Another assay deals with HeLa cells, Jurkat cells. In words: Cytochrome c release and mitochondrial membrane potential. The settings on record: immunostaining and fractionation, 48 hr. Type of assay: cell-based. The procedure:
FIG. 6D is a set of images of cells showing cytochrome c release induced by BH3Is. HeLa cells were treated with 100 μM BH3I-1 for 48 hr and were then stained with Hoechst (a) or cytochrome c antibody (b). The arrows indicate the position of an apoptotic cell.
FIG. 6E is an image of a Western blot analysis of cytochrome c release from Jurkat cells treated with BH3I-1 (100 μM) or BH3I-2 (50 μM) for 48 hr. Cells were fractionated and soluble (S) and heavy membrane (M) fractions were subjected to Western blot analysis using cytochrome c (Pharmingen) and VDAC (Calbiochem) antibodies.
Next, the role of BH3 Is in inducing the release of cytochrome c from mitochondria was examined.

Assay [2] addresses T1, U2AF35 / U2AF65 interaction (Homo sapiens, UniProt Q01081).
T1 construct: made in house; host or cells: U2AF65: TNT wheat germ lysate (Promega)
T1 sequence (Q01081 1-240): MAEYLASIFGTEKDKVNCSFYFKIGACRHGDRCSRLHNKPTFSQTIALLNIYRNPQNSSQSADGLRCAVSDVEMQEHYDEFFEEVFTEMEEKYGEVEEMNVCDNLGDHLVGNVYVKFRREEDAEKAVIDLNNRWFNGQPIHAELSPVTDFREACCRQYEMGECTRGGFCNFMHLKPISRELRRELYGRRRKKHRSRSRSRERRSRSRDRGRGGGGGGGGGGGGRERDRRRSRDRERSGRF
Briefly: Pulldown of splicing factors (specificity control). The format is binding. The settings on record: selectivity control. The method, then: Next, it was determined whether BH3Is could disrupt the heterodimerization of Bcl-xL with pro-apoptotic proteins from the Bcl-2 family, such as truncated Bid (tBid). Truncation of Bid by caspase-8 activates Bid and dramatically increases its affinity towards anti-apoptotic Bcl-2 family members (Li et al., Cell 94:491-501, 1998). To perform this study, in vitro translation of tBid or U2AF^65 (control) was performed using TNT® Coupled Reticulocyte and Wheat Germ Lysate Systems (Promega) respectively. Bcl-xL, U2AF^35 (control) or corresponding amounts of original Ni-NTA agarose beads (blank) were pre-incubated with the BH3 inhibitors or peptide in 100 μl of PBS for 30 min at 25° C. Then 1 μl of ^35S-labeled tBID or U2AF^65 was added and incubation was continued for 2 hr at 4° C. The samples were subjected to SDS-PAGE, coomassie blue staining and autoradiography.
To determine the specificity of BH3Is, their ability to inhibit other protein-protein interactions was tested using the pulldown assay described above and the splicing factors U2AF^35 and U2AF^65 (Zhang et al, Proc. Natl. Acad. Sci. USA 89:8769-73, 1992). […] BH3Is (80 μM) also had no effect on the interaction between the Apaf-1 CARD domain fragment and caspase-9 in the SELDI assay.

In the case of `CC(C)C(C(=O)O)N1C(=O)C(=Cc2ccc(Br)cc2)SC1=S` (stereo in doubt) [BH3I-1], the “cellular ATP levels” value in assay [1] was “cellular ATP levels decreased”. Moreover, in the assay on Jurkat/Bcl-xL cells, the “sub-G1 DNA” value is “induced the appearance of sub-GI DNA”, the “dose at which Bcl-xL overexpression gave no protection” value was 200 µM and the “doses from which Bcl-xL overexpression provided protection” value is “up to 100 μM”. In the assay on Jurkat cells, the “caspase-3-like activity (DEVD.amc)” value is reported as “increase”, the “caspase-9-like activity (LEHD.amc)” value is on record as “increase” and the “time of maximum activation of both caspases” value was 12 h. In addition, the cytochrome c release result in the assay with HeLa cells, Jurkat cells was “induced cytochrome c release”. Further, the “effect on interaction between splicing factors” value in assay [2] is recorded as “Neither BH3I-1 nor BH3I-2 affected the interaction”.

Take `O=C(Nc1cc(S(=O)(=O)c2ccc(Cl)cc2)ccc1Cl)c1cc(Cl)cc(Br)c1O` [BH3I-2]: in assay [1], the “cellular ATP levels” value is reported as “cellular ATP levels decreased”. Besides, in the assay on Jurkat/Bcl-xL cells, the “sub-G1 DNA” value is “induced the appearance of sub-GI DNA”, the “dose at which Bcl-xL overexpression gave no protection” value worked out at 80 µM and the “doses from which Bcl-xL overexpression provided protection” value is “up to 40 μM”. In addition, in the assay with Jurkat cells, the “caspase-3-like activity (DEVD.amc)” value is listed as “increase”, the “caspase-9-like activity (LEHD.amc)” value is given as “increase” and the “time of maximum activation of both caspases” value was 12 h. In addition, in the assay with HeLa cells, Jurkat cells, the cytochrome c release result was “induced cytochrome c release”. Also, the “effect on interaction between splicing factors” value in assay [2] is given as “Neither BH3I-1 nor BH3I-2 affected the interaction”.
